Reference: patent US20150374718A1, “Zhankuic Acid A and Analogs thereof and Their Use as an Anti-Inflammatory Agent” (National Cheng Kung University, priority 2014, published 2015)
“Also recorded” adds a separate entry of the source.

Columns and labels:
[1] = test system: S. choleraesuis-induced TNF-α and IL-6 production; assay: Plasma cytokines in S. choleraesuis-infected mice; type: in vivo; details: C57BL/6 mice; ZAA 10 mg/kg, oral S. choleraesuis 2×10^9 CFU/mouse; 6 h
[2] = test system: NF-κB, MAPK, and Akt signaling pathways; assay: Immunoblot of NF-κB, MAPK and Akt signaling in LPS-stimulated RAW264.7 cells; type: cell-based, murine; details: ZAA 1 h, then LPS 30 min
Method: (§1) FIG. 1. ZAA inhibits the production of inflammation-related molecules in LPS- and IFN-γ-stimulated murine macrophages. […] Total cell lysates were subjected to immunoblotting for detecting COX2 and iNOS. Relative expression levels of COX2 and iNOS protein were quantified by densitometric analysis with ImageJ software and normalized according to the β-actin reference band. […] The presence of nitrite in the culture medium was analyzed by the Griess assay and used as an indication of NO levels (n=4; *p<0.05 and ***p<0.001 vs. LPS- or IFN-γ-induced cells). (C) Raw264.7 cells were cotransfected with pNFKB-Luc and pβ-actin-LacZ plasmids. […] Total cell lysates were harvested, and their luciferase activities were determined and normalized on the basis of β-galactosidase activities. […] Numbers below the blots in D and those shown in the table below the blots in E represent the relative expression levels quantified by densitometric analysis with ImageJ software and normalized according to the β-actin reference bands. […]
Cell lysates were analyzed by immunoblotting with primary antibodies against pIKKα/β, IkBα, pNF-κBp65, pERK, ERK, pJNK, JNK, pAkt, Akt, pp38, p38, and β-actin, followed by appropriate secondary antibodies Immunoreactive protein bands were detected using an enhanced chemiluminescence (ECL) kit (Pierce Biotechnology, Rockford, Ill.). […]

recombinant human MD-2 = molecular target: T1, recombinant human MD-2 (Homo sapiens, UniProt Q9Y6Y9); assay: Native PAGE binding analysis with anti-MD-2 antibodies; details: MD-2 0.15 μg, 3 h at 37° C.
T1 construct: purchased R&D
T1 sequence (Q9Y6Y9 19-160): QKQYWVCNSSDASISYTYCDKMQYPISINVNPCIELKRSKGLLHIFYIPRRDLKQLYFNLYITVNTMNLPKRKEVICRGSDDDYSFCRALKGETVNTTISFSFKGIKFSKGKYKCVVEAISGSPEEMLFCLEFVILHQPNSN
Source text: FIG. 2. ZAA interacts with the hydrophobic binding pocket of MD-2. […] The amino acids G1y110-Asn158 shown in magenta, which reside within the immunogenic peptide fragment of MD-2 amino acids 110-160, are around the ZAA-binding site in the ribbon model of MD-2. Gly110 and Asn158 are indicated by arrows. (B) Interactions involved in the binding of ZAA to the hydrophobic amino acid residues within the MD-2 binding pocket are shown. […] Similar results were obtained in three independent experiments.
Samples were subjected to native PAGE, and the levels of TLR4-associated or free MD-2 were detected by immunoblotting with two anti-MD-2 antibodies, rabbit polyclonal antibody against MD-2 amino acids 110-160 (abcam, Cambridge, Mass.) and mouse monoclonal antibody against MD-2 amino acids 2-160 (abcam). Signals were detected via ECL.

[3] = test system: S. choleraesuis-induced TNF-α and IL-6 production; assay: ELISA of cytokines in S. choleraesuis-treated RAW264.7 cells; type: cell-based, murine; details: ZAA 1 h, 2×10^3 CFU/well
[4] = test system: LPS-induced NO production; details: reference (10); cited from earlier work
S. choleraesuis [5] = assay: S. choleraesuis-induced diarrhea model in mice
Method: (A and B) C57BL/6 mice that had been pretreated intraperitoneally with ZAA (2 or 10 mg/kg) or the vehicle for 30 min were orally administered with kanamycin-resistant S. choleraesuis (2×10^9 CFU/mouse). Diarrhea was scored after 2 days on a 0-3 scale (0=normal pellets, 1=slightly loose feces, 2=loose feces, and 3=watery diarrhea) (A). Body weight was recorded every 2 days for 2 weeks (n=9-12; **p<0.01 and ***p<0.001) (B). (C) Fecal samples were collected at 24-h intervals until 96 h after S. choleraesuis infection and assessed for viable bacterial CFU counts (n=10; **p<0.01 and ***p<0.001).
The pEGFP-N1 (ΔEGFP)-transformed S. choleraesuis (2×10^9 CFU/mouse) was orally administered to mice with or without oral pretreatment of ZAA (2 or 10 mg/kg). […] Fecal samples were collected at 24-h intervals until 96 h after S. choleraesuis infection. S. choleraesuis in the feces was quantified by plating serial dilutions of fecal samples on kanamycin-containing agar plates and counting colonies after overnight incubation at 37° C. Mice were monitored daily for symptoms of diarrhea and loss of body weight. Diarrhea was defined according to a diarrhea score of 0-3 (0=normal pellets, 1=slightly loose feces, 2=loose feces, and 3=watery diarrhea) as previously described (21).

[6] = test system: murine peritoneal macrophages; assay: Cell viability by MTS and SRB assays; type: cell-based; details: up to 30 μM for 72 h; resident or LPS-activated macrophages; listed as ZAA
Method: FIG. 6. ZAA is not cytotoxic to murine peritoneal macrophages. (A) Cells were incubated with various concentrations of ZAA for 72 h. Cell viability was determined by colorimetric tetrazolium (MTS) and sulphorhodamine B (SRB) assays. The absorbance was measured at 490 and 590 nm for MTS and SRB assays, respectively. […] Cell viability was determined by the SRB assay.
We first investigated the anti-inflammatory properties of ZAA purified from T. camphoratus. During inflammation, large amounts of pro-inflammatory mediators, NO, and prostaglandin E2 (PGE2) are generated by iNOS and COX2.

COX2 and iNOS = assay: Immunoblot of COX2 and iNOS in LPS-stimulated peritoneal macrophages; type: cell-based, murine; details: ZAA 1 h, then LPS 0.5 μg/mL 24 h; dose-dependent
Method: as §1, with “activities. Values are means±SD (n=4; *p<0.05 and **p<0.01 vs. LPS-stimulated cells).” for “activities.”
(§2) C57BL/6 mice were injected intraperitoneally with 3% thioglycollate, and their peritoneal macrophages were collected 72 h later. […] The presence of nitrite (a metabolite of NO) in the culture medium was analyzed by the Griess assay (Sigma-Aldrich), as previously described (16).

[7] = test system: LPS-induced TNF-α and IL-6 production; assay: ELISA of cytokines in LPS-treated RAW264.7 cells; type: cell-based, murine; details: ZAA 1 h, LPS 0.25 or 0.5 μg/mL
NO production = assay: Griess assay of nitrite (NO) in macrophage culture medium; type: cell-based, murine; details: ZAA 1 h, dose-dependent
Method: as §1, with “activities. Values are means±SD (n=4; *p<0.05 and **p<0.01 vs. LPS-stimulated cells).” for “activities.”
as §2

S. choleraesuis [8] = assay: S. choleraesuis growth in LB broth (absorbance at 600 nm); details: 24 or 48 h, various concentrations, listed as ZAA
Method: S. choleraesuis was cultured in LB broth for 24 or 48 h in the presence of various concentrations of ZAA or ampicillin that served as a positive control. Bacterial growth was assessed by measurement of the absorbance at 600 nm and is expressed as means±SD of at least three independent experiments.

[9] = test system: LPS-induced TNF-α and IL-6 production; assay: Plasma cytokines in LPS-injected mice; type: in vivo; details: ZAA i.p. 30 min before LPS 4 mg/kg i.p., 6 h
[10] = TLR4 signaling-defective C3H/HeJ mice

C=C(CC[C@@H](C)[C@H]1CC[C@H]2C3=C(C(=O)C[C@]12C)[C@@]1(C)CCC(=O)[C@@H](C)[C@@H]1CC3=O)C(C)C(=O)O (stereo partly shown) [No. 1, Zhankuic acid A]
S. choleraesuis-induced IL-6 production [1]: effectively suppressed | S. choleraesuis-induced TNF-α production [1]: effectively suppressed | LPS-induced phosphorylation of ERK, JNK, p38, and Akt [2]: inhibited | LPS-stimulated NF-κBp65 phosphorylation [2]: significantly prevented | recognition of anti-MD-2 antibodies (aa 110-160 and 2-160) to native MD-2 (recombinant human MD-2): reduced the recognition of both antibodies to native MD-2 | S. choleraesuis-induced TNF-α production ([3]; 4 h): effectively suppressed | S. choleraesuis-induced IL-6 production ([3]; 6 h): effectively suppressed | LPS-induced NO production [4]: inhibiting | fecal bacterial level (S. choleraesuis [5]; 96 h after bacterial infection, ZAA 10 mg/kg): undetectable | body weight loss (S. choleraesuis [5]; C57BL/6 mice, ZAA 10 mg/kg): dramatically attenuated | time to return to normal body weight (S. choleraesuis [5]; C57BL/6 mice, ZAA 10 mg/kg): ≤ 2 weeks | fecal bacterial load (S. choleraesuis [5]; C57BL/6 mice, ZAA 2 or 10 mg/kg, 24-96 h, dose- and time-dependent): dramatically reduced | diarrhea score (S. choleraesuis [5]; C57BL/6 mice, ZAA 2 or 10 mg/kg, scored after 2 days, 0-3 scale): reduced | cytotoxic effects (MTS and SRB) [6]: did not exert any cytotoxic effects | level of COX2 induced by LPS (COX2 and iNOS): downregulated | level of iNOS induced by LPS (COX2 and iNOS): downregulated | LPS-induced TNF-α production ([7]; supernatant after 4 h): inhibited | LPS-induced IL-6 production ([7]; supernatant after 6 h): inhibited | IFN-γ-induced NO production (NO production; then IFN-γ 50 ng/mL 24 h): inhibited | LPS-induced NO production (NO production; then LPS 0.5 μg/mL 24 h): inhibited | direct effect on growth / replication of Salmonella (S. choleraesuis [8]): cannot inhibit; also recorded: no direct inhibitory effects | plasma IL-6 production ([9]; C3H/HeN mice): significantly reduced | plasma TNF-α production ([9]; C3H/HeN mice): significantly reduced | plasma IL-6 production [9, 10]: a much weaker response | plasma TNF-α production [9, 10]: a much weaker response
